Data reported in patent publication US11572399B2, “Long-acting GIP peptide analogues” (University of Copenhagen, priority 2017, dated 2023).
Peptide text beside a SMILES is read from it. * marks the point of attachment. C16 diacid = O=C(O)CCCCCCCCCCCCCCC(=O)*

What was measured:
human GIP receptor [1] = biological target: T1, human GIP receptor (Homo sapiens, UniProt P48546); test: cAMP accumulation assay, antagonism of a GIP-mediated cAMP response (50-80% of max); type: cell-based; conditions: for Fold change of IC50 versus GIP(5-30)NH2: fold change of IC50 from GIP(5-30)NH2
T1 construct: host or cells: COS-7, transient transfection (calcium phosphate), cDNA in pCMV-Script
T1 sequence (P48546 22-466): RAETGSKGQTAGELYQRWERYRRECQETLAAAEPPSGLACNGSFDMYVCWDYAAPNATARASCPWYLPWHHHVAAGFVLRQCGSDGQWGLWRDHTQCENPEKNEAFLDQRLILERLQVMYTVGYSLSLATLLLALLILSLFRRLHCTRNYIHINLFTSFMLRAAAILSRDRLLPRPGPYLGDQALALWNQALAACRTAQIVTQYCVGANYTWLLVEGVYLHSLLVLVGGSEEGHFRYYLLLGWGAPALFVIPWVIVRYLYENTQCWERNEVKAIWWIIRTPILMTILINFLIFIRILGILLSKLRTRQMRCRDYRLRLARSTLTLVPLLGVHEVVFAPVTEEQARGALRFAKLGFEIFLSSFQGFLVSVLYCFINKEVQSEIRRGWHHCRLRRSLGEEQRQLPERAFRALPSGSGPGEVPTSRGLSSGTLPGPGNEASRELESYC
Method: The day after, the cells were washed twice with Hepes buffered saline (HBS) buffer and incubated with HBS and 1 mM 3-isobutyl-1-methylxanthine (IBMX) for 30 min at 37° C. […] The HitHunter™ cAMP XS assay (DiscoveRx) was carried out according to the manufacturer's instructions.

human GIP receptor [2] = biological target: T1, human GIP receptor; test: cAMP accumulation assay, agonism (ligand alone); type: cell-based; conditions: COS-7 cells, Table 1; for Emax: COS-7, intrinsic cAMP activity
human GIP receptor [3] = biological target: T1, human GIP receptor; test: 125I-human GIP competition binding assay, in the presence and absence of 2% HSA; conditions: for Binding (+/−HSA) Fold: fold change +HSA/−HSA; for Fold change HSA (2%)/Casein (0.1%): IC50 (plus HSA)/IC50 (minus HSA);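 on all read-outs here: nonspecific binding taken as radioligand bound to untransfected cells, IC50 obtained from nonlinear regression fits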
Method: Transient transfection of the COS-7 cells for cAMP accumulation and competition binding was performed using the calcium phosphate precipitation method with the addition of chloroquine^46-47.
Transient transfected COS-7 cells expressing the human GIP receptor were seeded in clear 96-well plates the day after transfection using a number of cells/well that obtained 5-10% specific binding of the added radioactive ligand. The following day, cells were assayed by competition binding for 3 h at 4° C. using 15-40 pM 125 I-human GIP as well as increasing concentrations unlabeled ligand in 50 mM Hepes buffer (pH 7.2) in the presence and absence of 2% HSA. After incubation, the cells were washed twice in ice-cold binding buffer (+/−2% HSA) and lysed using 200 mM NaOH with 1% SDS for 30 min. Nonspecific binding was determined as the binding of radioactive ligand to untransfected cells.
IC50, EC50, and Ki values were determined by nonlinear regression. […] Ki values were based on the formula for one class of binding sites in homologous competition binding studies and the Cheng Prussoffs formula, respectively (DeBlasi et al., 1989). To determine the HSA binding potential, the fold change in affinity (as determined by IC50) was calculated as IC50 (plus HSA)/IC50 (minus HSA).

[4] = transiently transfected COS-7 cells, Table 1 and text, read-out: cAMP antagonism nM (IC50, antagonistic potency)
[5] = binding in 0.1% casein (absence of HSA), log value, read-out: logIC50 0.1% casein (converted)
[6] = heterologous competition binding, transiently transfected COS-7 cells expressing the human GIP receptor, read-out: Binding

Compound | IC50 (human GIP receptor [1]; antagonism of GIP-mediated cAMP response, COS-7 cells, read-out: cAMP accumulation IC50) | Fold change of IC50 versus GIP(5-30)NH2 (human GIP receptor [1]) | IC50 (human GIP receptor [1]; [4]) | Emax (human GIP receptor [2]) | EC50 (human GIP receptor [2]; read-out: cAMP agonism nM (EC50)) | Ki (human GIP receptor [3]; absence of HSA) | Binding (+/−HSA) Fold (human GIP receptor [3]) | Ki (human GIP receptor [3]; presence of 2% HSA) | Ability to antagonize the GIP-mediated cAMP response (in words) (human GIP receptor [1]) | Affinity compared to GIP(3-30)NH2 (in words) (human GIP receptor [3]) | Fold change HSA (2%)/Casein (0.1%) (human GIP receptor [3]) | IC50 (human GIP receptor [3]; [5]) | IC50 (human GIP receptor [3]; binding in presence of 2% HSA, read-out: logIC50 2% HSA (converted)) | IC50 (human GIP receptor [3]; [6])
CC[C@H](C)[C@H](NC(=O)[C@H](CO)NC(=O)[C@H](Cc1ccc(O)cc1)NC(=O)[C@H](CC(=O)O)NC(=O)[C@H](CO)NC(=O)[C@@H](NC(=O)[C@H](Cc1ccccc1)NC(=O)[C@@H](N)[C@@H](C)O)[C@@H](C)CC)C(=O)N[C@@H](C)C(=O)N[C@@H](CCSC)C(=O)N[C@@H](CC(=O)O)C(=O)N[C@@H](CCCCN)C(=O)N[C@H](C(=O)N[C@@H](CCCCNC(=O)CCCCCCCCCCCCCCC(=O)O)C(=O)N[C@@H](CCC(N)=O)C(=O)N[C@@H](CCC(N)=O)C(=O)N[C@@H](CC(=O)O)C(=O)N[C@@H](Cc1ccccc1)C(=O)N[C@H](C(=O)N[C@@H](CC(N)=O)C(=O)N[C@@H](Cc1c[nH]c2ccccc12)C(=O)N[C@@H](CC(C)C)C(=O)N[C@@H](CC(C)C)C(=O)N[C@@H](C)C(=O)N[C@@H](CCC(N)=O)C(=O)N[C@@H](CCCCN)C(N)=O)C(C)C)[C@@H](C)CC [AT156, [hGIP(5-30)NH2[H18K]-C16diacid/18]] (H-TFISDYSIAMDKIK(C16 diacid)QQDFVNWLLAQK-NH2; N-terminus assumed) | 24 nM | 0.9 | 12 nM | 12% | 2 nM | 5 nM | 5.8 | 29 nM |  |  |  |  |  | 
CCCCCCCCCCCC(=O)N[C@H](C(=O)N[C@@H](Cc1ccccc1)C(=O)N[C@H](C(=O)N[C@@H](CO)C(=O)N[C@@H](CC(=O)O)C(=O)N[C@@H](Cc1ccc(O)cc1)C(=O)N[C@@H](CO)C(=O)N[C@H](C(=O)N[C@@H](C)C(=O)N[C@@H](CCSC)C(=O)N[C@@H](CC(=O)O)C(=O)N[C@@H](CCCCN)C(=O)N[C@H](C(=O)N[C@@H](Cc1c[nH]cn1)C(=O)N[C@@H](CCC(N)=O)C(=O)N[C@@H](CCC(N)=O)C(=O)N[C@@H](CC(=O)O)C(=O)N[C@@H](Cc1ccccc1)C(=O)N[C@H](C(=O)N[C@@H](CC(N)=O)C(=O)N[C@@H](Cc1c[nH]c2ccccc12)C(=O)N[C@@H](CC(C)C)C(=O)N[C@@H](CC(C)C)C(=O)N[C@@H](C)C(=O)N[C@@H](CCC(N)=O)C(=O)N[C@@H](CCCCN)C(N)=O)C(C)C)[C@@H](C)CC)[C@@H](C)CC)[C@@H](C)CC)[C@@H](C)O [AT118, [hGIP(5-30)NH2—C12/5]] |  |  | 29 nM | 0% |  |  |  |  | high potent antagonists | affinities in the same range as GIP(3-30)NH2 | 7.7 | 126 nM | 881 nM | 102 nM
CC[C@H](C)[C@H](NC(=O)[C@H](CCCCN)NC(=O)[C@H](CC(=O)O)NC(=O)[C@H](CCSC)NC(=O)[C@H](C)NC(=O)[C@H](CCCCNC(=O)CCCCCCCCCCCCCCC(=O)O)NC(=O)[C@H](CO)NC(=O)[C@H](Cc1ccc(O)cc1)NC(=O)[C@H](CC(=O)O)NC(=O)[C@H](CO)NC(=O)[C@@H](NC(=O)[C@H](Cc1ccccc1)NC(=O)[C@@H](N)[C@@H](C)O)[C@@H](C)CC)C(=O)N[C@@H](Cc1c[nH]cn1)C(=O)N[C@@H](CCC(N)=O)C(=O)N[C@@H](CCC(N)=O)C(=O)N[C@@H](CC(=O)O)C(=O)N[C@@H](Cc1ccccc1)C(=O)N[C@H](C(=O)N[C@@H](CC(N)=O)C(=O)N[C@@H](Cc1c[nH]c2ccccc12)C(=O)N[C@@H](CC(C)C)C(=O)N[C@@H](CC(C)C)C(=O)N[C@@H](C)C(=O)N[C@@H](CCC(N)=O)C(=O)N[C@@H](CCCCN)C(N)=O)C(C)C [AT174, [hGIP(5-30)NH2[I12K]-C16diacid/12]] (H-TFISDYSK(C16 diacid)AMDKIHQQDFVNWLLAQK-NH2; N-terminus assumed) |  | 0.9 |  | 0% |  |  | 6.1 |  | highest antagonistic potencies |  | 3.5 | 79.4 nM |  | 80 nM
